# Measurements from US20240358017A1, “SPIDER WEB ERADICATION AND SPIDER REPELLANT COMPOUND AND METHODS OF USE” (DALRAY, LLC., priority 2023, published 2024).
# System: spider web
# Experiment: web eradication / degradation of spider webs by the formulations
# Design: species or system spiders
# Conditions: comparison among the presented formulations; research by the inventors to-date
# From the text: As to the organic acid components of the above formulations, the chemical reaction for web degradation is exemplified by the following: As mentioned, the pH of compositions within the present invention(s) is an important feature of efficacy. […] As compositions of the present invention(s) are fabricated, the constituencies should be adjusted, as needed, to achieve end products of such acidity. Use of the formulations of the present invention is straight forward. In the simplest form, the solutions can be applied by a simple hand-pump garden sprayer. More pressurized, long-reach delivery may be achieved through various motorized pump systems as are readily available in the marketplace. After observed degradation of the target webs, the resulting “clumps” of digested webs may be simply rinsed from any surface with water.
substance,measurement,value
Lauramidopropyl Betaine,efficacy of web eradication (web degradation),effectively equivalent performance as Cocamipropyl Betaine
